Each structure is given as a SMILES string. Activity calls are given as the source filed them. The rule behind the calls is not given here.

The target of this assay is Induced myeloid leukemia cell differentiation protein Mcl-1 (Homo sapiens) (UniProt Q07820). In words: modulators of Bim peptide binding to Mcl-1, dose response, biochemical, bead-based flow cytometry, multiplexed, human (AID 1329). The following applies: Bim peptide-Mcl-1 binding, MCF. On the technique in general: In flow cytometry, cells or beads pass a laser one at a time.
Sequence of Induced myeloid leukemia cell differentiation protein Mcl-1 (Homo sapiens) (Q07820 whole entry, looked up): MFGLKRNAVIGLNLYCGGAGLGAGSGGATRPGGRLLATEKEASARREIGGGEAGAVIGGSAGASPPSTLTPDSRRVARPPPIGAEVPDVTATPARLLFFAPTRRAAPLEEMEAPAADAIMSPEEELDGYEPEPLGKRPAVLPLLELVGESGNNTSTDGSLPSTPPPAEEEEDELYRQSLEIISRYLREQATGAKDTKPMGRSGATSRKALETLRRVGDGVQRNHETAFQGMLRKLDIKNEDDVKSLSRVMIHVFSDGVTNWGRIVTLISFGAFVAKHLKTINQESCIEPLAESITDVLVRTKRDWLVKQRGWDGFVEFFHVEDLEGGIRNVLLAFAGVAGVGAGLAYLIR
`COc1ccc(C2=Nc3cccc4cccc(c34)N2)cc1`: the percent span entry was “inactive”. For `O=C(C1CCC(Cn2c(=S)[nH]c3ccccc3c2=O)CC1)N1CCN(c2ccccn2)CC1` (stereo not drawn), the percent span entry was “inactive”. The same measure for `NC(=O)c1c(NC(=O)C2CCCO2)sc2c1CCCCC2` (stereo not drawn): “inactive”; for `C=CCSc1nc(N)c2c(C)c(C)sc2n1`: “inactive”.

As for `Cc1cc(NC(=O)CCSc2ccccc2)ccc1Br`, the percent span result is “inactive”. Under `O=C(CSc1nnc(-c2ccccc2)c(-c2ccccc2)n1)N1CCc2ccccc21` stands “inactive”.

Turning to `COc1ccccc1C1=Nc2cccc3cccc(c23)N1`, the percent span result was “inactive”.

`CNC(=O)c1sc(-c2ccccn2)nc1C`: the percent span result is “inactive”.

As to `O=C(CSc1nnc(-c2ccco2)n1Cc1ccccc1)c1ccccc1`, the percent span result was “inactive”. `CCOC(=O)c1snc(-c2ccc(F)cc2)c1N`: the percent span entry is “inactive”. For the compound `COc1ccccc1NC(=O)CSc1nnc(-c2ccco2)n1Cc1ccco1`, the percent span entry is “inactive”. Under `CCCCN(C(=O)CCC(=O)Nc1cc(C)on1)C(C(=O)NC(C)(C)C)c1cccc(OC)c1OC` (stereo not drawn) stands “inactive”; under `Cc1cc(C)c2c(N)c3cccc(C)c3nc2n1`, “inactive”. The same measure for `COc1cccc2c(SCC(=O)N/N=C/c3ccc(O)c(O)c3)cc(C)nc12`: “inactive”; for `COC(=O)c1c(NC(=O)COc2ncnc3ccccc23)sc(C)c1C`: “inactive”. For the compound `CSc1n[nH]c2nc3c(c(=O)n12)C1(CCCC1)Cc1ccccc1-3`, the percent span entry is “inactive”. `COc1ccc(NC(=O)c2cccs2)cc1`: the percent span result is “inactive”. `Cc1nnc(NCc2n[nH]c(=O)c3ccccc23)c2ccccc12`: the percent span entry is “inactive”.

For `CNc1ccc(Br)cc(C(=O)/C=C/c2cccc(OC)c2OC)c1=O`, the percent span entry is “inactive”. Under `O=C(c1cc(=O)c2ccccc2o1)N1CCN(c2ccccc2F)CC1` stands “inactive”; under `Cc1ccc(/C=C2/NC(=O)N(Cc3ccccc3)C2=O)o1`, “inactive”. Consider `O=C(N/N=C/c1ccncc1)c1cccc(NC(=O)c2ccccc2Cl)c1`, for which the percent span entry was “inactive”. Under `c1coc(C2=Nc3cccc4cccc(c34)N2)c1` stands “inactive”. Take `COc1ccc(CC(=O)Nc2ccc3nc(C)sc3c2)cc1OC`: the percent span entry was “inactive”. Under `Cc1cc(C)c2nc3nc(C)cc(C)c3c(N)c2c1` stands “inactive”; under `CCOC(=O)C1CCCN(c2ncnc3c2cnn3-c2cccc(C)c2)C1` (stereo not drawn), “inactive”. The same measure for `O=C(c1cnccn1)N1CCN(c2ccccc2F)CC1`: “inactive”. The same measure for `CC(=O)c1ccc2c(c1)C1C=CCC1C(c1ccncc1)N2` (stereo not drawn): “inactive”. As for `Cc1cccc(N2CCN(C(=S)Nc3ccc4nc(N5CCN(C)CC5)cc(C)c4c3)CC2)c1C`, the percent span result is “inactive”. The same measure for `COc1cc(/C=C2/NC(=O)N(Cc3ccccc3F)C2=O)ccc1O`: “inactive”; for `Cc1ccc(-c2cc(C(=O)Nc3cc(C(=O)O)ccc3C)c3ccccc3n2)cc1`: “inactive”. The same measure for `O=C(NCCCO)Nc1ccc2nc(-c3ccco3)c(-c3ccco3)nc2c1`: “inactive”; for `Cc1ccc(-c2cc(C(=O)Nc3ccccn3)c3ccccc3n2)o1`: “inactive”.

Turning to `CC(C)(C)C1CCC(=NNC(=O)c2cc3c(s2)CCCC3)CC1` (stereo not drawn), the percent span result was “inactive”. For the compound `CCn1c(C)c(/C=N/Nc2nc3ccccc3s2)c2ccccc21`, the percent span entry was “inactive”.

For `CCCCC(=O)Nc1ccc(C(=O)N2CCC(C(=O)OCC)CC2)cc1`, the percent span result was “inactive”. As for `O=C(Nc1nnc(C2CC2)s1)C1Cc2ccccc2CN1S(=O)(=O)c1ccccc1F` (stereo not drawn), the percent span result was “inactive”.

As for `c1ccc2c(N3CCOCC3)nc(N3CCOCC3)nc2c1`, the percent span entry was “inactive”. The same measure for `O=C1c2ccccc2-c2onc3ccc(NCc4ccco4)c1c23`: “inactive”; for `CCN(CC)c1ccc(NC(=O)c2ccccc2Br)cc1S(=O)(=O)Nc1ccccc1OC`: “inactive”; for `O=C(c1cc2ccccc2oc1=O)N(c1ccccc1)C1C=CS(=O)(=O)C1` (stereo not drawn): “inactive”. On to `COc1ccc(CN(CC(=O)NC2CCCC2)C(=O)CCC(=O)Nc2cc(C)on2)cc1`, for which the percent span entry was “inactive”.

As to `Cc1ccc2nc3c(cc(C(N)=S)c(=N)n3CCCOC(C)C)c(=O)n2c1`, the percent span result was “inactive”. Under `COc1ccccc1OCc1ccc(C(=O)Nc2ccccc2F)cc1` stands “inactive”; under `O=C(c1ccccc1NS(=O)(=O)c1ccc(Br)s1)N1CCCC1`, “inactive”; under `NC(=O)c1c(N)sc2c1CCCCC2`, “inactive”. As for `Clc1nssc1=Nc1ccc(Br)cc1`, the percent span entry is “inactive”. Take `Fc1ccc(C2=Nn3c(Cc4ccccc4F)nnc3SC2)cc1`: the percent span result is “inactive”.

For `O=C(O)/C=C/C(=O)NNC(=O)c1ccc(Br)cc1`, the percent span result is “inactive”. The same measure for `COC(=O)C1C2c3ccccc3OC1(C)N=c1s/c(=C/c3cnn(C)c3C)c(=O)n12` (stereo not drawn): “inactive”. The same measure for `S=C(NCCc1ccccc1)NCCc1ccccc1`: “inactive”; for `CCOC(=O)CSC1=NC(=O)/C(=C\c2ccc(OC(C)=O)cc2)S1`: “inactive”; for `COc1ccc(N2C(=O)C(Cl)=C(Nc3ccccc3O)C2=O)cc1`: “inactive”. The same measure for `Cn1c(N)c(C(=O)COC(=O)c2cc(-c3ccco3)nc3ccccc23)c(=O)n(Cc2ccccc2)c1=O`: “inactive”. For the compound `CNC(=S)N/N=C/C1=CCC2CC1C2(C)C` (stereo not drawn), the percent span result was “inactive”.

Take `CCOC(=O)c1c2c3c(cccc3[nH]c1=O)C(=O)c1ccccc1-2`: the percent span result was “inactive”. As for `O=C(NNC(=O)C12CC3CC(CC(C3)C1)C2)c1ccco1`, the percent span entry was “inactive”. Take `CC1Nc2ccccc2C(=O)N1NS(=O)(=O)c1ccccc1` (stereo not drawn): the percent span result was “inactive”. Turning to `COc1cc(/C=C2\SC(=S)NC2=O)ccc1OS(=O)(=O)c1ccccc1`, the percent span entry is “inactive”. Under `O=C(N/N=C/c1cccc([N+](=O)[O-])c1)c1cccs1` stands “inactive”. In the case of `O=[N+]([O-])c1c(NCCO)cc(Sc2nc3ccccc3s2)c2nonc12`, the percent span entry is “inactive”. The same measure for `Cc1ccc(C(=O)N(CCCN(C)C)c2nc3ccc(Cl)cc3s2)cc1C`: “inactive”; for `c1ccc(-c2nnc(OCCN3CCOCC3)c3ccccc23)cc1`: “inactive”; for `CCOC(=O)c1ccc(N=c2ssnc2Cl)cc1`: “inactive”. The same measure for `COc1ccc(OC)c(NC(=O)COC(=O)c2cc3c(s2)CCC3)c1`: “inactive”. On to `COc1ccc(C(=O)Nc2ccc(C(=O)OCC(=O)c3cccc4ccccc34)cc2)cc1`, for which the percent span entry was “inactive”. The same measure for `COc1c(F)c(F)c(C(=O)Nc2ccccc2N2CCN(C(=O)C(C)C)CC2)c(F)c1F`: “inactive”; for `O=C(Nc1n[nH]c(C(F)(F)F)n1)C1CC1`: “inactive”; for `Cc1cc(NC(=O)CSc2nnc(-c3cccnc3)n2Cc2ccccc2)no1`: “inactive”. As to `CC(=O)NC(=O)Nc1sc(=S)n(C)c1C`, the percent span entry is “inactive”. The same measure for `Cc1ccc(-c2cc(C(=O)Nc3cccnc3)c3ccccc3n2)o1`: “inactive”; for `Cc1nnc(Sc2cc(NCCO)c([N+](=O)[O-])c3nonc23)s1`: “inactive”. Turning to `CCOc1ccc(CNc2ccc(N3CCCC3)cc2)cc1`, the percent span result was “inactive”. Under `CC(C)(C)C(=O)NC(NC(=S)Nc1ccc(S(N)(=O)=O)cc1)C(Cl)(Cl)Cl` (stereo not drawn) stands “inactive”. The same measure for `CCOC(=O)C1=C(CC)Nc2ccccc2N=C1NC(=O)c1ccc(S(=O)(=O)N2CCOCC2)cc1`: “inactive”. Under `CCOC(=O)c1sc(N)c(C(=O)Nc2ccccc2OC)c1C` stands “inactive”; under `CC(C)C(=O)NC(c1ccccc1)c1cc([N+](=O)[O-])c2cccnc2c1O` (stereo not drawn), “inactive”.

As to `Cc1ccc(Nc2nc(-c3c(C)nc4ncccn34)cs2)cc1`, the percent span result was “inactive”. Turning to `O=S1(=O)N=C(N(CCO)/N=C/c2ccccc2)c2ccccc21`, the percent span result is “inactive”. Regarding `CCOc1ccccc1CNc1ccc(O)cc1`, the percent span result was “inactive”. Under `O=C(CCc1ccccc1)N1CCN(c2ccccn2)CC1` stands “inactive”. Under `CCc1cccc(CC)c1-n1c(-c2cccnc2)n[nH]c1=S` stands “inactive”; under `COc1ccc(N2CCN(CCCNC(=O)CCCn3c(=O)[nH]c4ccsc4c3=O)CC2)cc1`, “inactive”; under `N=C1C(c2nc3ccccc3s2)=C(O)CN1Cc1ccccc1`, “inactive”. On to `C=CS(=O)c1sc(Cl)c(N2CCOCC2)c1[N+](=O)[O-]` (stereo not drawn), for which the percent span entry was “inactive”. Under `CCCCc1ccc(NC(=S)NCc2ccc(OC)cc2)cc1` stands “inactive”; under `CCC(=O)NC(c1ccc(C)cc1)c1cc([N+](=O)[O-])c2cccnc2c1O` (stereo not drawn), “inactive”; under `CS(=O)(=O)NN1C(=O)c2ccccc2NC1c1cccs1` (stereo not drawn), “inactive”. The same measure for `Cc1ccc(N=c2ssnc2Cl)cc1`: “inactive”. Turning to `O=C(NCc1ccccc1)C(=O)Nc1nc(C23CC4CC(CC(C4)C2)C3)cs1`, the percent span result was “inactive”. For `Cc1cc2nc(/C(C#N)=C/c3ccncc3)[nH]c2cc1C`, the percent span result is “inactive”. `CCN(CC)c1ccc(NC(=O)c2ccccc2F)cc1S(=O)(=O)Nc1ccccc1OC`: the percent span result is “inactive”. Under `Cc1cc(N)ccc1N1CCCC1` stands “inactive”.

(Values after PubChem BioAssay AID1329 (NMMLSC, 2008).)
